Counter-ions that a name gives are not always drawn. Like-named read-outs stand apart in the source and are kept apart here.
Key:
[1] = test system: FeCl3-induced occlusive thrombus in rat carotid artery; experiment: Rat model of FeCl3-induced platelet-dependent arterial thrombosis; type: in vivo; conditions: Rattus norvegicus, read-out: ED50 for thrombus prevention (dose that prevents complete thrombotic occlusion in 50% of animals)
Excerpt: Rat Model of FeCl3-induced Platelet-dependent Arterial Thrombosis
Kurz, K. D., Main, B. W., and Sandusky, G. E., Thromb. […] In this model a platelet-rich, occlusive thrombus is formed in a segment of the rat carotid artery treated locally with a fresh solution of FeCl3 absorbed to a piece of filter paper. The FeCl3 is thought to diffuse into the treated segment of artery and cause de-endothelialization of the affected vessel surface. […] The effect of a test compound on the incidence of occlusive thrombus formation following the application of the FeCl3 is monitored by ultrasonic flowtometry and is used as the primary end point. The use of flowtometry to measure carotid artery blood flow, is a modification of the original procedure in which thermal detection of clot formation was employed. Kurz, K. D., Main, B. W., and Sandusky, G. E., Thromb.
Male Harlan Sprague Dawley rats (420-450 g) were acclimated at least 72 hours prior to use and fasted for 12 hours prior to surgery with free access to water. The animals were prepared, anesthetized with Nembutal followed by the insertion of catheters for blood pressure monitoring, drug and anesthesia delivery. The left carotid artery was isolated by making a midline cervical incision followed by blunt dissection and spreading techniques to separate a 2 cm segment of the vessel from the carotid sheath. A silk suture is inserted under the proximal and distal ends of the isolated vessel to provide clearance for the placement of a ultrasonic flow probe (Transonic) around the proximal end of the vessel. The probe is then secured with a stationary arm.
The test compound was administered as a single intravenous bolus at the doses outlined in Table 4 after placement of the flow probe and 5 minutes prior to the thrombogenic stimulus. At t=0, a 3 mm diameter piece of filter paper (Whatman #3) soaked with 10 microliters of a 35% solution of fresh FeCl3 (made up in water) was applied the segment of isolated carotid artery distal to the flow probe. Blood pressure, blood flow, heart rate, and respiration were monitored for 60 minutes.
The incidence of occlusion (defined as the attainment of zero blood flow) was recorded as the primary end point.
This allows a direct comparison of the antithrombotic efficacy of [3-[(benzylsulfonyl)amino]-2-oxo-1,2-dihydropyridyl]acetyl-L-argininal, with other antithrombotic agents which have also been evaluated in this model as described above. Table 5 lists the ED50 values for several well known anticoagulant agents in this model compared to [3-[(benzylsulfonyl)amino]-2-oxo-1,2-dihydropyridyl]acetyl-L-argininal.

[2] = test system: clot formation on silk thread in A-V shunt; experiment: Multiple extracorporeal (A-V) shunt model in rats utilizing oral dosing; type: in vivo; conditions: rat, read-out: ED50 value (dose that reduced the clot size by 50%)
Experimental: The compounds of Example 10 and 143 were evaluated in a multichamber A-V shunt model in rats. The A-V shunt model is one of the most common and generally used systems to evaluate antithrombotic compounds: Smith, J. R. and White, A. M. Br. J. Pharmacol., 77: 29-38 (1982). In this model a localized clot made up of primarily fibrin with some platelet and macrophage involvement (Shand, R. A. and Smith, J. R. and Wallis, R. B. Thromb. Res., 36: 223-232 (1984)), is formed on an artificial thrombogenic surface (typically a segment of silk or cotton thread) contained in a sialstic chamber which is part of an exteriorized shunt between the carotid artery and jugular vein. The procedure described in this Example is a modified A-V shunt model that allows for oral dosing of test agents and subsequent evaluation of efficacy over a two to three hour window in time.
Briefly, male Harlan Sprague Dawley rats (420-450 g) were acclimated at least 72 hours prior to use. The animals were fasted for 12 hours prior to surgery with free access to water. Unanesthetized animals were grouped into three or four dosage groups (six or seven animals per group) and administered test agents orally via gavage needle, at doses of 1.0, 3.0, 10 and 50 mg/kg for the compound of Example 10, and 3.0, 10 and 30 mg/kg for the Compound of Example 143. Immediately after oral dosing, animals were anesthetized with sodium pentobarbital (Nembutal) given intraperitoneally at a dose of 50 mg/kg body weight, and placed on a isothermal pad to maintain body temperature. The level of anesthesia was monitored every 15 minutes by neuro-response to a tail pinch, respiration and core temperature. The desired depth of surgical anesthesia was maintained by administering subsequent doses (5 mg/kg) intravenously. The left femoral artery was catheterized using standard procedures for blood pressure monitoring and blood sampling, with polyethylene tubing (PE50). The left femoral vein was catheterized with PE50 tubing for delivery of anethestic.
The exteriorized shunts were assembled by connecting two pieces of saline filled 12.5 cm PE90 tubing with a 6 cm piece of PE160 tubing containing a 6 cm piece of silk suture size 3 and clamped with hemostats. A small 0.5 cm portion of the silk thread protrudes from the junction of the chamber with the shunt. The left jugular vein and right carotid artery were catheterized with the ends of the PE90 shunt. The shunt was unclamped and blood allowed to flow from the carotid artery, through the chamber, and exit the shunt via the jugular vein. After 15 minutes, both sides of the chamber were clamped and the suture containing the clot removed following detachment of the arterial end of the chamber. The clot was immediately weighed and recorded. This procedure takes place at predetermined intervals (60, 90, 120, and 150 minutes after oral dosing) to allow assessment of efficacy over a large window in time. Four shunts were placed with flow initiated at 45, 75, 105, and 135 minutes after oral compound administration. Clot weight from the four shunts was the primary endpoint of the protocol. Blood pressure, heart rate core temperature and respiration were monitored continuously. Following termination of the experiment the animals were euthanized with a 120 mg/kg dose of Nembutal. One experiment was performed per animal.
ED50 values were calculated at 60, 90, 120, and 150 minutes after oral dosing of test compound. ED50 is that dose that reduced the clot size by 50%. […]

human plasmin = human plasmin (Homo sapiens, UniProt P00747); experiment: biochemical
Experimental: (§1) The ability of compounds of the present invention to act as a selective inhibitor of thrombin catalytic activity was assessed by determining the concentration of compound which inhibited the activity of this enzyme by 50%, (IC50), and comparing this value to that determined for all or some of the following related serine proteases: recombinant tissue plasminogen activator (rt-PA), plasmin, activated protein C, chymotrypsin, factor Xa and trypsin.
(§2) The buffer used for all assays was HBSA (10 mM HEPES, pH 7.5, 150 mM sodium chloride, 0.1% bovine serum albumin).
(§3) The assay for IC50 determinations was conducted by combining in appropriate wells of a Corning microtiter plate, 50 microliters of HBSA, 50 microliters of the test compound at a specified concentration (covering a broad concentration range) diluted in HBSA (or HBSA alone for VO (uninhibited velocity) measurement), and 50 microliters of the enzyme diluted in HBSA. Following a 30 minute incubation at ambient temperature, 50 microliters of the substrate at the concentrations specified below were added to the wells, yielding a final total volume of 200 microliters. The initial velocity of chromogenic substrate hydrolysis was measured by the change in absorbance at 405 nm using a Thermo Max® Kinetic Microplate Reader over a 5 minute period in which less than 5% of the added substrate was utilized. The concentration of added inhibitor which caused a 50% decrease in the initial rate of hydrolysis was defined as the IC50 value.
Plasmin catalytic activity was determined using the chromogenic substrate, S-2366 [L-pyroglutomyl-L-prolyl-L-arginine-p-nitroaniline hydrochloride], which was obtained from Pharmacia-Upjohn. The substrate was made up in deionized water followed by dilution in HBSA prior to the assay in which the final concentration was 300 micromolar (about 2.5-times Km). Purified human plasmin was obtained from Enzyme Research Laboratories, Inc. The enzyme was diluted into HBSA prior to assay in which the final concentration was […].

human aPC = biological target: T1, human aPC (Homo sapiens, UniProt P04070); experiment: biochemical; conditions: 30 minute incubation
T1 construct: purchased Hematologic Technologies, Inc
Experimental: as §2
Following a 30 minute incubation at ambient temperature, 50 microliters of the substrate at the concentrations specified below were added to the wells, yielding a final total volume of 200 microliters.
Activated Protein C (aPC) Assay
aPC catalytic activity was determined using the chromogenic substrate, Pefachrome PC (delta-carbobenzloxy-D-lysine-L-prolyl-L-arginine-p-nitroaniline dihydrochloride), obtained from Pentapharm Ltd.). […] Purified human aPC was obtained from Hematologic Technologies, Inc. The enzyme was diluted into HBSA prior to assay in which the final concentration was 1.0 nM.

Human rt-PA (Activase) = biological target: T2, Human rt-PA (Activase) (Homo sapiens, UniProt P00750); experiment: biochemical; conditions: 30 minute incubation
T2 construct: purchased Genentech Inc
Experimental: as §1, §2, §3
Recombinant Tissue Plasminogen Activator (rt-PA) Assay
rt-PA catalytic activity was determined using the substrate, Pefachrome t-PA (CH3SO2-D-hexahydrotyrosine-glycyl-L-arginine-p-nitroaniline, obtained from Pentapharm Ltd.). The substrate was made up in deionized water followed by dilution in HBSA prior to the assay in which the final concentration was 500 micromolar (about 3-times Km). Human rt-PA (Activase®) was obtained from Genentech Inc. The enzyme was reconstituted in deionized water and diluted into HBSA prior to the assay in which the final concentration was 1.0 nM.

human alpha thrombin = biological target: T3, human alpha thrombin (Homo sapiens, UniProt P00734); experiment: Thrombin (fIIa) IC50 assay, chromogenic substrate Pefachrome t-PA; type: biochemical
T3 construct: Purified human alpha-thrombin; purchased Enzyme Research Laboratories, Inc
Experimental: as §1, §2, §3
Enzyme activity was determined using the chromogenic substrate, Pefachrome t-PA (CH3SO2-D-hexahydrotyrosine-glycyl-L-Arginine-p-nitroaniline, obtained from Pentapharm Ltd.). The substrate was reconstituted in deionized water prior to use. Purified human a-thrombin was obtained from Enzyme Research Laboratories, Inc. The buffer used for all assays was HBSA (10 mM HEPES, pH 7.5, 150 mM sodium chloride, 0.1% bovine serum albumin).
IC50 determinations were conducted where HBSA ([…]), a-thrombin (50 μl) and inhibitor (50 μl) (covering a broad concentration range), were combined in appropriate wells and incubated for 30 minutes at room temperature prior to the addition of substrate Pefachrome-t-PA (50 μl). The initial velocity of Pefachrome t-PA hydrolysis was measured by the change in absorbance at 405 nm using a Thermo Max® Kinetic Microplate Reader over a 5 minute period in which less than 5% of the added substrate was utilized. The concentration of added inhibitor which caused a 50% decrease in the initial rate of hydrolysis was defined as the IC50 value.

[3] = 30 minute incubation, read-out: Plasmin IC50 (Table 3B)
[4] = 30 minute incubation, read-out: IC50 Plasmin (Table 2)
[5] = 1.0 nM enzyme, read-out: IC50 aPC (Table 2)
[6] = 1.0 nM enzyme, read-out: IC50 rt-PA (Table 2)

T1 sequence (P04070 43-197): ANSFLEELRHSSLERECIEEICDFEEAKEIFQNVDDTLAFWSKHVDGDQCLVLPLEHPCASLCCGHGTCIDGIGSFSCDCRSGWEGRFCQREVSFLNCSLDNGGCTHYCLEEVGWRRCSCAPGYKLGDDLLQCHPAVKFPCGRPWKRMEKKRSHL
T1 sequence (P04070 212-461): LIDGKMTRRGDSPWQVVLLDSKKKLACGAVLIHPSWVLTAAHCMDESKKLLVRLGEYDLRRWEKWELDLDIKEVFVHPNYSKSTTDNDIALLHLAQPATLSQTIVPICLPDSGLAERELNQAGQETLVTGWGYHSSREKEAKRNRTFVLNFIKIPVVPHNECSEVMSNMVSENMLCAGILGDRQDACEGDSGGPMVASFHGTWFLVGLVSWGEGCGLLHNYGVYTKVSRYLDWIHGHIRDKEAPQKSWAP
human plasmin, sequence (P00747 97-580): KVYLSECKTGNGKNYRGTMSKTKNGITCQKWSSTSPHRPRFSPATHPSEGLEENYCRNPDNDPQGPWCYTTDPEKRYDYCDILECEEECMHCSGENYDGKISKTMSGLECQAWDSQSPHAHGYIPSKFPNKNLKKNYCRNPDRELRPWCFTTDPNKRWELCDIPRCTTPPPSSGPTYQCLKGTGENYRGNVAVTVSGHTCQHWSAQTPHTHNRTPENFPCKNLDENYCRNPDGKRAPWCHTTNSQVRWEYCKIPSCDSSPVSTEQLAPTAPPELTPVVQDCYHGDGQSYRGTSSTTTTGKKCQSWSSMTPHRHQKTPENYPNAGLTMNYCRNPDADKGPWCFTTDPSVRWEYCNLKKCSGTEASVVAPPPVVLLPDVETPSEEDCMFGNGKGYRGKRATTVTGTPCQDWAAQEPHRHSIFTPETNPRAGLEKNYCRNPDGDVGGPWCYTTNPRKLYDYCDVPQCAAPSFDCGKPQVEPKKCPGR
human plasmin, sequence (P00747 581-810): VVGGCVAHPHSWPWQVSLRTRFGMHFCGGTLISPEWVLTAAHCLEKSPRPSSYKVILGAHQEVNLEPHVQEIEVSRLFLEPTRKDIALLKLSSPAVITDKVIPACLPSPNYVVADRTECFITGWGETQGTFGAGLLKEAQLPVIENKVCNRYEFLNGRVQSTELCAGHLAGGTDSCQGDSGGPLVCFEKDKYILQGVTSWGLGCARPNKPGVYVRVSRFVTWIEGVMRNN
T2 sequence (P00750 36-562): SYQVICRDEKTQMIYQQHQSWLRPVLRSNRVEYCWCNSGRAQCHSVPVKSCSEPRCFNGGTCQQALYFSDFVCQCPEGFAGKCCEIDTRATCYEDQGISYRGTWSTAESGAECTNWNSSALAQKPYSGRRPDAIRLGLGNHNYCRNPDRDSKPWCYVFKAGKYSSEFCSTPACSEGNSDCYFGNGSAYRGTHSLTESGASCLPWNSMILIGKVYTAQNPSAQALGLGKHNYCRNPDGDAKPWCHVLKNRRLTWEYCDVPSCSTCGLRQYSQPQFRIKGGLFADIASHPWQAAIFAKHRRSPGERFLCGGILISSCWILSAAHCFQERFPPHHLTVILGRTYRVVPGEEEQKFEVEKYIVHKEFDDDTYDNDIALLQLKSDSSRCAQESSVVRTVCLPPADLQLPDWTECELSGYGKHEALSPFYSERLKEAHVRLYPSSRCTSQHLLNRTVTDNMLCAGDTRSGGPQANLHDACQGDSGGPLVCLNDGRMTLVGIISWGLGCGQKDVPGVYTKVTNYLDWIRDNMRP

## CC1CNc2c(cccc2S(=O)(=O)N[C@@H](CCCNC(=N)N)C(=O)N2CC[C@@H](C)C[C@@H]2C(=O)O)C1 (stereo partly drawn) [Argatroban, 2R,4R-4-methyl-1-[N-2-(3-methyl-1,2,3,4-tetrahydro-8-quinolinesulfonyl)-L-argininal]-2-piperdinecarboxylic acid, reference compound]
[1]
  ED50: 3.8 mg/kg

## N=C(N)NCCCC(C=O)NC(=O)Cn1cccc(NS(=O)(=O)Cc2ccccc2F)c1=O (centres unmarked) [Compound 121J]
[2]; 1 h, 60 min after oral dose
  ED50: 22 mg/kg
[2]; 1.5 h, 90 min after oral dose
  ED50: 20 mg/kg
[2]; 2 h, 120 min after oral dose
  ED50: 24 mg/kg
[2]; 150 min after oral dose
  ED50: 28 mg/kg

## COc1ccc(OC)c(S(=O)(=O)Nc2ccc(C)n(CC(=O)N[C@H](C=O)CCCNC(=N)N)c2=O)c1 [Compound 126C, 3-[(2,5-dimethoxyphenyl)sulfonylamino-6-methyl-2-oxo-1,2-dihydro-pyridyl]acetyl-L-argininal]
Human plasmin; [3]
  IC50: > 2500 nM
Human aPC
  aPC IC50 (Table 3B): inactive
Human rt-PA (Activase)
  rtPA IC50 (Table 3B): inactive
Human alpha thrombin
  IC50: 0.519 nM

## CCc1ccc(NS(=O)(=O)c2cc(F)ccc2C)c(=O)n1CC(=O)N[C@H](C=O)CCCNC(=N)N [Compound 126F, [3-(5-fluoro-2-methylphenyl)sulfonylamino-6-ethyl-2-oxo-1,2-dihydro-pyridyl]acetyl-L-argininaln]
Human plasmin; [3]
  IC50: ~2500 nM
Human aPC
  aPC IC50 (Table 3B): inactive
Human rt-PA (Activase)
  rtPA IC50 (Table 3B): inactive
Human alpha thrombin
  IC50: 0.71 nM

## CS(=O)(=O)Nc1c(CCc2ccccc2)ccn(CC(=O)N[C@H](C=O)CCCNC(=N)N)c1=O [Compound 134B, [3-methylsulfonylamino-4-(2-phenylethyl)-2-oxo-1,2-dihydropyridyl]acetyl-L-argininal]
Human plasmin; read-out: Plasmin IC50 (Table 3B)
  IC50: > 2500 nM
Human aPC
  aPC IC50 (Table 3B): inactive
Human rt-PA (Activase); read-out: rtPA IC50 (Table 3B)
  IC50: > 2500 nM
Human alpha thrombin
  IC50: 7.95 nM

## COc1cccc(S(=O)(=O)Nc2ccc(C)n(CC(=O)N[C@H](C=O)CCCNC(=N)N)c2=O)c1 [Compound 153A, [3-(3-methoxylphenyl)sulfonylamino-6-methyl-2-oxo-1,2-dihydro-pyridyl]acetyl-L-argininal]
Human plasmin; 30 minute incubation, read-out: Plasmin IC50 (Table 3C)
  IC50: > 2500 nM
Human aPC; read-out: aPC IC50 (Table 3C)
  IC50: > 2500 nM
Human rt-PA (Activase); read-out: rtPA IC50 (Table 3C)
  IC50: > 2500 nM
Human alpha thrombin; 30 minute incubation, read-out: Thrombin IC50 (Table 3C)
  IC50: 0.456 nM

## N=C(N)NCCC[C@@H](C=O)NC(=O)Cn1cccc(NS(=O)(=O)c2ccccc2)c1=O [Compound B, (3-phenylsulfonylamino-2-oxo-1,2-dihydro-pyridyl)acetyl-L-argininal]
Human plasmin; [4]
  IC50: > 2500 nM
Human aPC; [5]
  IC50: > 2500 nM
Human rt-PA (Activase); [6]
  IC50: > 2500 nM
Human alpha thrombin
  IC50: 0.98 nM

## Cc1ncc(NS(=O)(=O)Cc2ccccc2)c(=O)n1CC(=O)N[C@H](C=O)CCCNC(=N)N [Compound D, (5-benzylsulfonylamino-2-methyl-6-oxo-1,6-dihydro-1-pyrimidinyl)acetyl-L-argininal, trifluoroacetate salt]
Human plasmin; [4]
  IC50: > 2500 nM
Human aPC; [5]
  IC50: > 2500 nM
Human rt-PA (Activase); [6]
  IC50: > 2500 nM
Human alpha thrombin
  IC50: 2.32 nM
